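Dose response: 5 concentrations. Exposure: 48 h. Format: 96-well plates. Endpoint: linear interpolation; highest concentration if not reached. At the TGI there is no net growth.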
Columns and labels:
Test in all cases: growth of human tumour cells (NCI), 48 h
HCT-116 colon = system: HCT-116 colon
EKVX NSCLC = system: EKVX NSCLC
MOLT-4 leukemia = system: MOLT-4 leukemia
DU-145 prostate = system: DU-145 prostate
UO-31 renal = system: UO-31 renal
786-0 renal = system: 786-0 renal
UACC-62 melanoma = system: UACC-62 melanoma
SF-268 CNS = system: SF-268 CNS
NCI-H226 lung = system: NCI-H226 lung
TK-10 renal = system: TK-10 renal
OVCAR-8 ovarian = system: OVCAR-8 ovarian
SF-539 CNS = system: SF-539 CNS
SK-MEL-28 melanoma = system: SK-MEL-28 melanoma
SNB-19 CNS = system: SNB-19 CNS
PC-3 prostate = system: PC-3 prostate
RPMI-8226 leukemia = system: RPMI-8226 leukemia
RXF 393 renal = system: RXF 393 renal
K-562 leukemia = system: K-562 leukemia
NCI/ADR-RES ovarian = system: NCI/ADR-RES ovarian
HCT-15 colon = system: HCT-15 colon
COLO 205 colon = system: COLO 205 colon
HCC-2998 colon = system: HCC-2998 colon
SF-295 CNS = system: SF-295 CNS
OVCAR-5 ovarian = system: OVCAR-5 ovarian
OVCAR-3 ovarian = system: OVCAR-3 ovarian
MDA-MB-435 = system: MDA-MB-435
BT-549 breast = system: BT-549 breast
HL-60(TB) leukemia = system: HL-60(TB) leukemia
SK-MEL-5 melanoma = system: SK-MEL-5 melanoma
MALME-3M melanoma = system: MALME-3M melanoma
KM12 colon = system: KM12 colon
NCI-H522 lung = system: NCI-H522 lung
LOX IMVI melanoma = system: LOX IMVI melanoma
OVCAR-4 ovarian = system: OVCAR-4 ovarian
U251 CNS = system: U251 CNS
HOP-62 NSCLC = system: HOP-62 NSCLC
CCRF-CEM leukemia = system: CCRF-CEM leukemia
NCI-H23 lung = system: NCI-H23 lung
CAKI-1 renal = system: CAKI-1 renal
SK-MEL-2 melanoma = system: SK-MEL-2 melanoma
HOP-92 NSCLC = system: HOP-92 NSCLC
SN12C renal = system: SN12C renal
NCI-H460 lung = system: NCI-H460 lung
A498 renal = system: A498 renal
UACC-257 melanoma = system: UACC-257 melanoma
SR leukemia = system: SR leukemia
MCF7 breast = system: MCF7 breast
M14 melanoma = system: M14 melanoma
ACHN renal = system: ACHN renal
SNB-75 CNS = system: SNB-75 CNS
IGROV1 ovarian = system: IGROV1 ovarian
SW-620 colon = system: SW-620 colon
A549 NSCLC = system: A549 NSCLC
T-47D breast = system: T-47D breast
HT29 colon = system: HT29 colon
HS 578T breast = system: HS 578T breast

Measured: TGI

Cc1cccc2c1C/C(=C\c1cccc(C)c1C(=O)O)C2=O
> 100 µM: all assays above

— PubChem BioAssay (NCI)
